18 molecules from BindingDB's records for PubMed 39651809 (Pfizer Inc.) can be followed below.

The assay can be described thus: Inhibition of SLP76 phosphorylation at Ser376 in human Jurkat cells incubated for 30 mins by HTRF assay. For orientation: TR-FRET usually uses a lanthanide donor and a delayed reading to cut background.

As a reminder, the IC50 is the concentration needed to halve the response being measured.

For `CC(C)n1cnnc1-c1cccc(NC(=O)c2cccc3c2OCC(N)C3)n1` (stereo not drawn), the IC50 was found to be 1.08 µM. Then `CCCn1cnnc1-c1cccc(N2Cc3c(cc(N(C)C)nc3CNC)C2=O)n1` [US11142525, Example 46], with 0.121 µM; and `CNCc1nc(N(C)C)cc2c1CN(c1cccc(-c3nncn3C(C)C)n1)C2=O` [US11142525, Example 1], with 0.112 µM. Then `CNCc1nc(N(C)C(C)C)cc2c1CN(c1cccc(-c3nnc4n3[C@@H](CF)CC4)n1)C2=O` [US11684616, Example 205], with 0.052 µM. Then `CC(C)n1cnnc1-c1cccc(NC(=O)c2cccc3c2nc(CN)n3C)n1`, with 1.07 µM; and `CNCc1nc(N(C)C(C)C)cc2c1CN(c1cccc(-c3nnc4n3[C@@H](C)CC4)n1)C2=O` [US11684616, Example 210], with 0.047 µM. As for `CC[C@H]1CCc2nnc(-c3cccc(N4Cc5c(cc(N(C)C(C)C)nc5CNC)C4=O)n3)n21` [US11684616, Example 201], the 50% inhibitory concentration (IC50) came to 0.037 µM.

`C[C@@H]1CCCN1c1cc2c(c([C@@H](C)N)n1)CN(c1cccc(-c3nnc4n3[C@@H](C)CC4)n1)C2=O` [US11684616, Example 24] gave an IC50 of 0.053 µM. Then `CCCn1c(C)nnc1-c1cccc(N2Cc3c(cc(N(C)C(C)C)nc3CNC)C2=O)n1` [US11142525, Example 64], with 0.081 µM; and `CNCc1cc(OC)cc2c1CN(c1cccc(-c3nncn3[C@@H](C)CC(F)(F)F)n1)C2=O`, with 0.115 µM. Then `CNCc1cc(OC)cc2c1CN(c1cccc(-c3nncn3C(C)C)n1)C2=O`, with 0.383 µM; and `CC[C@@H](N)c1nc(N2CCC[C@H]2C)cc2c1CN(c1cccc(-c3nncn3CC)n1)C2=O` [US11684616, Example 140], with 0.053 µM; and `CCCn1cnnc1-c1cccc(N2Cc3c(cc(N(C)C(C)C)nc3CNC)C2=O)n1` [US11142525, Example 63], with 0.087 µM. Then `COc1ccc2c(c1CN)CN(c1cccc(-c3nncn3[C@@H](C)CC(F)(F)F)n1)C2=O`, with 0.52 µM; and `CC[C@H](C)n1cnnc1-c1cccc(NC(=O)c2cccc3c2nc(CN)n3C)n1`, with 0.139 µM.

Molecule `CCC(C)n1cnnc1-c1cccc(NC(=O)c2cccc3c2OCC(N)C3)n1` (stereo not drawn) showed an IC50 of 0.222 µM.

The molecule `CNCc1nc(N(C)C)cc2c1CN(c1cccc(-c3nncn3[C@@H](C)CC(F)(F)F)n1)C2=O` [US11142525, Example 17] came in with an IC50 of 0.07 µM. Against the preceding molecule, the IC50 is about 3.2-fold lower. As for `CCCn1cnnc1-c1cccc(N2Cc3c(cc(N4CCC[C@H]4C)nc3CNC)C2=O)n1` [US11142525, Example 55], the midpoint of inhibition, the IC50, lay at 0.034 µM.
